# Laboratory results from patent publication US7642261B2, “Use of 1-[4-(5-cyanoindol-3-yl)butyl]-4-(2-carbamoyl-benzofuran-5-yl)-piperazine and its physiologically acceptable salts” (Merck Patent GmbH, priority 2002, dated 2010).
# Assays:
# Type in all cases: in vivo
# [1] = test system: mice; experiment: Light-Dark Choice Test (model for generalized anxiety disorders); conditions: oral dose of 10 mg/kg, 5 min
# Method: A typical model for generalized anxiety disorders is the Light-Dark Chaise Test […] according to J. N. Crawly, Pharmacol. Biochem Behav. 1981,15: 695-699.
# The light-dark choise apparatus consists of two connected boxes with one box darkened and the other one highly illuminated. A mouse is placed in one box, and the time spent in lit box and the number of transitions between boxes are measured over a period of 5 min. Normal mice only have low numbers of entries to the lit compartment and spent most time in the dark compartment.
# 1-[4-(5-cyanoindol-3-yl)butyl]-4-(2-carbamoyl-benzofuran-5-yl)-piperazine or one of its physiologically acceptable salts, in particular 1-[4-(5-cyanoindol-3-yl)butyl]-4-(2-carbamoyl-benzofuran-5-yl)-piperazine hydrochloride, following oral application dose -dependently increase the number of transitions and time spent in lit compartment. For example, an oral dose of 10 mg/kg of 1-[4-(5-cyanoindol-3-yl)butyl]-4-(2-carbamoyl-benzofuran-5-yl)-piperazine hydrochloride increased the number of transitions by 73% and time spent in lit compartment by 31%.
# [2] = test system: aged rats; experiment: Morris Water Maze in aged rats; conditions: old rats, tested at day 7, untreated old rats 95 sec, vehicle treated young rats 76 sec
# Text: Typical models for dementia, Alzheimer's disease and multi-infarct are the Passive Avoidance test in rats [S. D. Glick and B. Zimmerberg, Behav. Biol., 1972, 7: 245-254; D. K. Rush, Behav. Neural Biol., 1988, 50: 255-274] and the testing of memory functions in the Morris Water Maze in aged rats [R. Morris, J. Neurosci. Methods, 1984, 11: 47-60, F. H. Gage et al. Neurobiol. Aging. 1984, 5: 43-48].
# The Morris Water Maze consists of a circular water tank (150 cm in diameter) filled with water with an escape platform (15 cm in diameter) 18 cm from the periphery beneath the surface of the water. The water is made opaque rendering the platform invisible. Rats placed in the tank swim around and find the hidden platform accidently after a certain time (latency), and the latency to find the platform is taken as measure. When given further training session to find the platform, rats show reduced latencies from day to day, i.e. remember (learn) the location of the platform. But compared to young rats, aged rats perform less well in learning over days reflecting impaired learning capacity. Drugs effective for dementia and particularly Alzheimers disease improve the earning capacity of aged rats.
# 1-[4-(5-cyanoindol-3-yl)butyl]-4-(2-carbamoyl-benzofuran-5-yl)-piperazine hydrochloride is administered to old rats at oral doses of 1 and 3 mg/kg every day. […]
# [3] = test system: rats; experiment: Elevated Plus Maze (model for agoraphobia), rats; conditions: 10 mg/kg p.o., 3 min test period
# Method: A typical model for Agoraphobia is named Elevated Plus Maze according to S. Pellow, P. Chopin, S. E. File, M. Briley, J. Neurosci. Meth., 1985,14: 145-167.
# The apparatus consists of an X-shaped platform elevated from the floor, with two “open” unprotected arms and two “closed” protected arms, with animals having free access to both arms. The rat or mouse is placed in the centre of the arms, and the number of entires made and the time spent on the open arms is measured in a 3 min test period. Normal animals have very low basal levels, i.e. avoid entering the open arms and stay only a for a very brief period on open arms.
# In rats, a dose of 10 mg/kg p.o. increased number of entries by 56% and time spent on open arms by 76%.
# [4] = test system: rats
# Method: A typical animal model is the drug discrimination procedure in rats using cocaine as the stimulus cue (e.g. D. M. Wood and M. W. Emmett-Oglesby, J. Pharmacol. Exp. Ther., 1986; 237: 120-125; D. Huang and M. C. Wilson, Pharmacol. Biochem. Behav., 1986; 24: 205-210; J. M. Witkin at al., J. Pharmacol. Exp. Ther, 1991; 257: 706-713). Rats are trained to discriminate 10 mg/kg cocaine from saline in a two-lever discrimination procedure. Compounds which substitute for cocaine produce a dose-dependent increase in cocaine-appropriate responding, i.e. in selecting the cocaine-paired lever.
# 1-[4-(5-cyanoindol-3-yl)butyl]-4-(2-carbamoyl-benzofuran-5-yl)-piperazine or one of its physiologically acceptable salts, in particular 1-[4-(5-cyanoindol-3-yl)butyl]-4-(2-carbamoyl-benzofuran-5-yl)-piperazine hydrochloride, dose-dependently but only partially substituted for cocaine (maximally 60% choise of cocaine-paired lever at 50 mg/kg p.o.).
smiles,measurement,setting,value
Cl.N#Cc1ccc2[nH]cc(CCCCN3CCN(c4ccc5oc(C(N)=O)cc5c4)CC3)c2c1 [1-[4-(5-cyanoindol-3-yl)butyl]-4-(2-carbamoyl-benzofuran-5-yl)-piperazine hydrochloride],increase of number of transitions,[1],73%
same,increase of time spent in lit compartment,[1],31%
same,latency to find the platform in the first attempt,[2]; oral 1 mg/kg every day,77 s
same,latency to find the platform in the first attempt,[2]; oral 3 mg/kg every day,73 s
same,increase of number of entries on open arms,[3],56%
same,increase of time spent on open arms,[3],76%
same,stimulus drug property by itself (abuse potential),"[4]; rat, in vivo",does not serve as a stimulus drug by itself
same,maximal choice of cocaine-paired lever (partial substitution for cocaine),"[4]; rats trained on 10 mg/kg cocaine vs saline, 50 mg/kg p.o.",60%
